Laboratory results published in patent US8507483B2, “1H-pyrimidin-2-one derivatives, preparation thereof and pharmaceutical use thereof as inhibitors of AKT (PKB) phosphorylation” (Sanofi, priority 2009, dated 2013).

These molecules were tested on AKT protein phosphorylated on serine 473 (P-AKT-S473) in PC3 human prostate carcinoma cells (assay: pAKT expression in PC3 cells measured by MSD Multi-spot Biomarker Detection (Test B)). Conditions: PC-3, inhibition of AKT Ser473 phosphorylation, 1 to 2 h incubation, MSD sandwich immunoassay, absolute IC50, mean of two experiments.
Format: cell-based
Experimental: The inhibitory activity of the molecules on AKT phosphorylation is measured either by western blotting using the technique described below, or by the MSD Multi-spot Biomarker detection technique from Meso Scale Discovery also described below.
Where appropriate, the activity of the products is translated into approximately IC50, obtained from a dose-response curve of various concentrations tested and representing the dose giving 50% of specific inhibition (absolute IC50). Two independent experiments make it possible to calculate the mean of the IC50s. Study of pAKT expression in PC3 human prostate carcinoma cells measured by the MSD Multi-spot Biomarker Detection technique from Meso Scale Discovery (Test B): This test is based on measuring the expression of the AKT protein phosphorylated on serine 473 (P-AKT-S473), in the PC3 human prostate carcinoma line, by means of the technique based on a sandwich immunoassay using the MSD Multi-spot Biomarker Detection kit from Meso Scale Discovery: phospho-Akt (Ser473) whole cell lysate kit (#K151 CAD) or phospho-Akt (Ser473)/Total Akt whole cell lysate kit (#K151OOD).
The primary antibody specific for P-AKT-5473 (Kit #K151 CAD) is coated onto an electrode in each well of the 96-well plates of the MSD kit: after the addition of a protein lysate to each well, the signal is visualised by adding a secondary detection antibody labelled with an electrochemoluminescent compound. The procedure followed is that described in the kit.
On day 1, the PC3 cells are seeded into 96-well plates (TPP, #92096) at the concentration of 35 000 cells/well in 200 μl of DMEM medium (DMEM Gibco #11960-044) containing 10% of foetal calf serum (FCS Gibco, #10500-056) and 1% glutamine (L-Glu Gibco #25030-024), and incubated at 37° C., 5% CO2, overnight.
On day 2, the cells are incubated in the presence or absence of the test products for 1 to 2 h at 37° C. in the presence of 5% of CO2. The molecules, diluted in dimethyl sulphoxide (DMSO Sigma #D2650), are added from a 20-times concentrated stock solution, the final percentage of DMSO being 0.1%. The molecules are tested either at a single concentration of less than or equal to 10 μM, or at increasing concentrations in a range that can extend from less than 1 nM to 10 μM.
After this incubation, the cells are lysed for the preparation of the proteins. For this, after the culture medium has been drawn off, […] of complete Tris Lysis Buffer of the MSD kit containing the protease and phosphatase inhibitor solutions are added to the wells and the cells are lysed for 1 h at 4° C. with shaking At this stage, the plates containing the lysates can be frozen at −20° C. or at −80° C.
The wells of the 96-well plates of the MSD kit are saturated for 1 h at ambient temperature with the blocking solution of the MSD kit. Four washes are carried out with 150 μl of Tris Wash Buffer of the MSD kit. The lysates previously prepared are transferred into the 96-well multi-spot plates of the MSD kit and incubated for 1 h at ambient temperature, with shaking Four washes are carried out with 150 μl of Tris Wash Buffer of the MSD kit. 25 μl of the MSD sulpho-tag detection antibody solution are added to the wells and incubated for 1 h at ambient temperature, with shaking Four washes are carried out with 150 μl of Tris Wash Buffer of the MSD kit. 150 μl of Read Buffer of the MSD kit are added to the wells and the plates are read immediately on the 512400 instrument from Meso Scale Discovery.
The instrument measures a signal for each well. Wells without cells and containing the lysis buffer serve to determine the background noise that will be subtracted from all the measurements (min). The wells containing cells in the absence of product and in the presence of 0.1% DMSO are considered to be the 100% signal (max). The percentage inhibition is calculated for each concentration of test product according to the following formula: (1−((test−min)/(max−min)))×100. […]
With `Cn1c(Cc2nc(N3CCOCC3)cc(=O)[nH]2)nc2cc(F)ccc21` [Example 11, 2-[(5-fluoro-1-methyl-1H-benzimidazol-2-yl)methyl]-6-(morpholin-4-yl)pyrimidin-4(3H)-one] the IC50 was 16 nM.
`N#CCn1c(Cc2nc(N3CCOCC3)cc(=O)[nH]2)nc2ccccc21` [Example 30, (2-{[4-(morpholin-4-yl)-6-oxo-1,6-dihydropyrimidin-2-yl]methyl}-1H-benzimidazol-1-yl)acetonitrile] gave an IC50 of 1340 nM.
`O=c1cc(N2CCOCC2)nc(Cc2nc3ccc4ccccc4c3o2)[nH]1` [Example 20, 6-(morpholin-4-yl)-2-(naphtho[2,1-d][1,3]oxazol-2-ylmethyl)pyrimidin-4(3H)-one] gave an IC50 of 1000 nM.
`O=c1cc(N2CCOCC2)nc(Cc2nc3c(F)c(F)ccc3[nH]2)[nH]1` [Example 28, 2-[(6,7-difluoro-1H-benzimidazol-2-yl)methyl]-6-(morpholin-4-yl)pyrimidine-4(3H)-one] showed an IC50 of 585 nM.
`CCn1c(Cc2nc(N3CCOCC3)cc(=O)[nH]2)nc2ccccc21` [Example 15, 2-[(1-ethyl-1H-benzimidazol-2-yl)methyl]-6-(morpholin-4-yl)pyrimidin-4(3H)-one] gave an IC50 of 26 nM.
`Cn1c(Cc2nc(N3CCOCC3)cc(=O)[nH]2)nc2cc(F)c(F)c(F)c21` [Example 39, 6-(Morpholin-4-yl)-2-[(5,6,7-trifluoro-1-methyl-1H-benzimidazol-2-yl)methyl]pyrimidin-4(3H)-one] gave an IC50 of 100 nM.
In the case of `Cn1c(Cc2nc(N3CCOCC3)cc(=O)[nH]2)nc2ccc(F)c(F)c21` [Example 37, 2-[(6,7-Difluoro-1-methyl-1H-benzimidazol-2-yl)methyl]-6-(morpholin-4-yl)pyrimidin-4(3H)-one], the IC50 is reported as 15 nM.
With `Cc1cc2nc(Cc3nc(N4CCOCC4)cc(=O)[nH]3)[nH]c2cc1Cl` [Example 29, 2-[(5-chloro-6-methyl-1H-benzimidazol-2-yl)methyl]-6-(morpholin-4-yl)pyrimidin-4(3H)-one] the IC50 was 506 nM.
Work on `O=c1cc(N2CCOCC2)nc(Cc2nc3ccc(Br)cc3o2)[nH]1` [Example 9, 2-[(6-bromo-1,3-benzoxazol-2-yl)methyl]-6-(morpholin-4-yl)pyrimidin-4(3H)-one] yielded an IC50 of 175 nM.
Work on `Cn1c(Cc2nc(N3CCOCC3)cc(=O)[nH]2)nc2ccc(Br)cc21` [Example 36, 2-[(6-Bromo-1-methyl-1H-benzimidazol-2-yl)methyl]-6-(morpholin-4-yl)pyrimidin-4(3H)-one] yielded an IC50 of 28 nM.
With `O=c1cc(N2CCOCC2)nc(Cc2nc3ccccc3n2C2CCCCC2)[nH]1` [Example 33, 2-[(1-cyclohexyl-1H-benzimidazol-2-yl)methyl]-6-(morpholin-4-yl)pyrimidin-4(3H)-one] the IC50 was 142 nM.
Molecule `O=c1cc(N2CCOCC2)nc(Cc2nc3c(Cl)cc(C(F)(F)F)cc3[nH]2)[nH]1` [Example 25, 2-{[4-chloro-6-(trifluoromethyl)-1H-benzimidazol-2-yl]methyl}-6-(morpholin-4-yl)pyrimidin-4(3H)-one] has an IC50 of 3000 nM.
`O=c1cc(N2CCOCC2)nc(Cc2nc3c(Br)cc(F)cc3[nH]2)[nH]1` [Example 35, 2-[(4-bromo-6-fluoro-1H-benzimidazol-2-yl)methyl]-6-(morpholin-4-yl)pyrimidin-4(3H)-one] showed an IC50 of 115 nM.
`O=c1cc(N2CCOCC2)nc(Cc2nc3ccccc3n2-c2ccccc2)[nH]1` [Example 13, 6-(morpholin-4-yl)-2-[(1-phenyl-1H-benzimidazol-2-yl)methyl]pyrimidin-4(3H)-one] was tested, and the IC50 was 8 nM.
Molecule `CC(c1ccccc1)n1c(Cc2nc(N3CCOCC3)cc(=O)[nH]2)nc2cc(Cl)ccc21` (stereo not shown) [Example 32, 2-{[5-chloro-1-(1-phenylethyl)-1H-benzimidazol-2-yl]methyl}-6-(morpholin-4-yl)pyrimidine-4(3H)-one] has an IC50 of 206 nM.
For `O=c1cc(N2CCOCC2)nc(Cc2nc3cc(F)c(F)c(F)c3[nH]2)[nH]1` [Example 34, 6-(morphlolin-4-yl)-2-[(5,6,7-trifluoro-1H-benzimidazol-2-yl)methyl]pyrimidin-4(3H)-one], the IC50 was 208 nM.
